Experimental data taken from patent EP2140864A2 (H. Lundbeck A/S, priority 2001, dated 2002).
Read-outs that look alike come from different tables or passages of the source. Marks after values point to notes of the source that are not given here. One block for each compound: values may come before it.

Assays:
[1] = biological target: T1, human GAL2 receptor (Homo sapiens, UniProt O43603); test: Radioligand binding at cloned human GAL2 receptor; conditions: pyrimidines, read-out: Ki GalR2
T1 construct: expressed in transfected cells
T1 sequence (O43603 1-387): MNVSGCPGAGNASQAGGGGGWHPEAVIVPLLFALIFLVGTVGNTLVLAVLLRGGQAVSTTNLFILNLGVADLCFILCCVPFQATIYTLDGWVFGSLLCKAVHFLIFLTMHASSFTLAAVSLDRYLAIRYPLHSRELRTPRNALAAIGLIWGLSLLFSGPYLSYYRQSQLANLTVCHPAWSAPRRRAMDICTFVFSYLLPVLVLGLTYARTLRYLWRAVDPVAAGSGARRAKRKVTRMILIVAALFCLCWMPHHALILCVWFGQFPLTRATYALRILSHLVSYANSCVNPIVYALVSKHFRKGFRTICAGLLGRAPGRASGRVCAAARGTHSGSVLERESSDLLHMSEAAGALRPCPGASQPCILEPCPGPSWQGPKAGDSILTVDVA
Protocol: The binding properties of the pyrimidines of the present invention were evaluated at the cloned human galanin receptors, GAL1, GAL2, and GAL3, using protocols described herein.
The binding properties of the indolones of the present invention were evaluated at the cloned human galanin receptors, GAL1, GAL2, and GAL3, using protocols described herein.
LM(tk-) cells were stably transfected with the human GAL1 or GAL3 receptor. CHO cells were stably transfected with the human GAL2 receptor.
cDNAs for the human and rat GAL1, and human and rat GAL3 receptors were transfected with a G-418 resistant gene into the mouse fibroblast LM(tk-) cell line by a calcium phosphate transfection method (Cullen, 1987). Stably transfected cells were selected with G-418. Human and rat GAL2 receptors were similarly transfected into CHO cells.
Membranes were harvested from stably transfected LM(tk-) cells. Adherent cells were washed twice in ice-cold phosphate buffered saline (138 mM NaCl, 8.1 mM Na2HPO4, 2.5 mM KCl, 1.2 mM KH2PO4, 0.9 mM CaCl2, 0.5 mM MgCl2, pH 7.4) and lysed by sonication in ice-cold sonication buffer (20 mM Tris-HCl, 5 mM EDTA, pH 7.7). Large particles and debris were cleared by low speed centrifugation (200 x g, 5 min, 4°C). Membranes were collected from the supernatant fraction by centrifugation (32,000 x g, 18 min, 4°C), washed with ice-cold hypotonic buffer, and collected again by centrifugation (32,000 x g, 18 min, 4°C). The final membrane pellet was resuspended by sonication into a small volume of ice-cold binding buffer (-1 ml for every 5 plates: 10 mM NaCl, 20 mM HEPES, 0.22 mM KH2PO4, 1.26 mM CaCl2, 0.81 mM MgSO4, pH 7.4). Protein concentration was measured by the Bradford method (Bradford, 1976) using Bio-Rad Reagent, with bovine serum albumin as a standard. Membranes were held on ice for up to one hour and used fresh, or flash frozen and stored in liquid nitrogen. Membranes were prepared similarly from CHO cells.
Galanin Recentors: Binding assays were performed according to the following published methods: human GAL3 (PCT International Publication No. WO 98/15570), human GAL1 (PCT International Publication No. WO 95/2260), human GAL2 (PCT International Publication No. WO 97/26853).
Binding data were analyzed using nonlinear regression and statistical techniques available in the GraphPAD Prism package (San Diego, CA). Enzymatic assay data were derived from a standard curve of reference compound data.

[2] = biological target: T2, human GAL3 receptor (Homo sapiens, UniProt O60755); test: Radioligand binding at cloned human GAL3 receptor; conditions: cloned human receptor, read-out: Ki GalR3
T2 construct: expressed in transfected cells
T2 sequence (O60755 1-368): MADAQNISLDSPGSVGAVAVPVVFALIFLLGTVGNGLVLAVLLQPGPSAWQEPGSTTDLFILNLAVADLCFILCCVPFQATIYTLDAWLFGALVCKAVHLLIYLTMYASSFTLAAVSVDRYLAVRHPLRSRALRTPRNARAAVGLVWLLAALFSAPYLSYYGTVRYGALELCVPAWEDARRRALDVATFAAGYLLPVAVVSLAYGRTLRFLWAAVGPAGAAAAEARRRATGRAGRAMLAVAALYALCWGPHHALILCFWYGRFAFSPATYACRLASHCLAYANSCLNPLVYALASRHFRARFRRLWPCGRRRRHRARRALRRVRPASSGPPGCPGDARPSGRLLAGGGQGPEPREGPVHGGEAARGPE
Procedure, shortened: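 Compound vehicle, as final assay concentration, was 3% DMSO (indolones) or 1% ethanol/0.09% polypuronic acid F-127 (pyrimidines). Binding measured on fresh or frozen membranes of stably transfected LM(tk-) mouse fibroblasts carrying cloned human GAL3, in pH 7.4 HEPES buffer; values derived by nonlinear regression.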

[3] = tested on: Male Sprague-Dawley rats; test: Rat Forced Swim Test (FST); assay type: in vivo; conditions: for antidepressant profile in the FST (conclusion): overall conclusion of the study
Protocol: The procedure used in this study was similar to that previously described (Porsolt, et al., 1978), except the water depth (30 cm in this procedure). The greater depth in this test prevented the rats from supporting themselves by touching the bottom of the cylinder with their feet. Swim sessions were conducted by placing rats in individual plexiglass cylinders (46 cm tall x 20 cm in diameter) containing 23-25°C water 30 cm deep (Porsolt, et al. used a depth of only 15 cm; also, see Detke, et al., 1995). Two swim tests were conducted always between 1200 and 1800 hours: an initial 15-min pretest followed 24 h later by a 5-minute test. […] All other test sessions were conducted between 1300 to 1700 hours. Following all swim sessions, rats were removed from the cylinders, dried with paper towels and placed in a heated cage for 15 minutes and returned to their home cages. All test sessions were videotaped using a Panasonic color video camera and recorder for scoring later.
Male Sprague-Dawley rats (Taconic Farms, NY) were used in all experiments. Rats were housed in pairs and maintained on a 12:12-h light-dark cycle. Rats were handled for 5 minutes each day for 5 days prior to behavioral testing.
The rat's behavior was rated at 5 second intervals during the 5 minute test as one of the following: • 1. Immobility- rat remained floating in the water without struggling and was only making those movements necessary to keep its head above water; • 2. Climbing - rat was making active movements with its forepaws in and out of the water, usually directed against the walls; • 3. Swimming - rat was making active swimming motions, more than necessary to merely maintain its head above water, e.g. moving around in the cylinder; and • 4. Diving - entire body of the rat was submerged.
All of the behavior scoring was done by a single rater, who was blind to the treatment condition. The rater was also present in the room throughout the entire test period.
All injections were given using 1 cc tuberculin syringe with 26 3/8 gauge needles (Becton-Dickinson, VWR Scientific, Bridgeport, NJ). The volume of injection was 1 ml/kg.
The drugs were dissolved in 100% N,N-dimethylacetamide. All administrations were given using 1 cc tuberculin syringes, to which a 3 inch, curved, stainless steel gavage needle was attached. The volume of administration was 1 ml/kg.
The compounds were dissolved in 100% N,N-dimethylacetamide. All administrations were given using 1 cc tuberculin syringes, to which a 3 inch, curved, stainless steel gavage needle was attached. The volume of administration was 1 ml/kg.
The forced swim test data (immobility, swimming, climbing, diving) were subjected to a randomized, one-way ANOVA and post hoc tests conducted using the Student-Newman-heuls test. The data were analyzed using the GBSTAT program, version 6.5 (Dynamics Microsystems, Inc., Silver Spring, MD, 1997). All data are presented as means ± S.E.M.

[4] = 1 mg/kg p.o., single administration, 1 hr. before test
[5] = 3 mg/kg p.o., single administration, 1 hr. before test
[6] = 10 mg/kg p.o., single administration, 1 hr. before test
[7] = 3 mg/kg p.o., single administration 24 hours before the test day
[8] = 5 mg/kg p.o., single administration, 1 hr. before test
[9] = 10 mg/kg i.p., single injection, 5 minute test
[10] = 10 mg/kg p.o., single administration 24 hours before the test day

Ki [1]: 2620 nM | Ki ([2]; pyrimidines): 164 nM
SMILES: Cc1ccc(Nc2cc(N3CCCCC3)nc(N3CCCc4ccccc43)n2)cc1 [Example 40]

Ki [1]: 1140 nM | Ki ([2]; pyrimidines): 275 nM
SMILES: COc1cc2c(cc1OC)CN(c1nc(Nc3ccc(C)cc3)cc(N3CCCCC3)n1)CC2 [Example 42]

SMILES: CN(C)c1cc(Nc2ccc(Cl)c(Cl)c2)nc(N2CCN(Cc3ccccc3)CC2)n1 [Example 151]
Ki ([2]; pyrimidines): 11 nM | Climbing [3, 4]: 2.3 ± 0.6 | Diving [3, 4]: 0.2 ± 0.2 | Immobility [3, 4]: 41 ± 2.0 | Swimming [3, 4]: 16.8 ± 1.4^d | Climbing [3, 5]: 2.4 ± 0.5 | Diving [3, 5]: 0.3 ± 0.2 | Immobility [3, 5]: 38 ± 2.0^a | Swimming [3, 5]: 19.5 ± 1.5^e | Climbing [3, 6]: 2.2 ± 0.5 | Diving [3, 6]: 0.3 ± 0.2 | Immobility [3, 6]: 39 ± 1.8^b | Swimming [3, 6]: 18.9 ± 1.5^e | antidepressant profile in the FST (conclusion) [3]: resemble those of antidepressants

SMILES: Cc1ccc(Nc2cc(N3CCCCC3)nc(N3CCN(c4cc(C(F)(F)F)ccn4)CC3)n2)cc1 [Example 32]
Ki [1]: 1860 nM | Ki ([2]; pyrimidines): 145 nM

Ki [1]: 2480 nM | Ki ([2]; pyrimidines): 615 nM
SMILES: Cc1ccc(Nc2cc(N(C)C)nc(N3CCC(O)(c4ccccc4)CC3)n2)cc1 [Example 80]

SMILES: Cc1ccc(Nc2cc(N3CCCCC3)nc(N(C)c3ccccc3)n2)cc1 [Example 6]
Ki [1]: 2160 nM | Ki ([2]; pyrimidines): 248 nM

SMILES: Cc1ccc(Nc2cc(N(C)C)nc(N(C)c3ccc(C)cc3)n2)cc1 [Example 72]
Ki [1]: 2080 nM | Ki ([2]; pyrimidines): 132 nM

SMILES: Cc1ccc(Nc2cc(N(C)C)nc(N3CCN(c4ccc(C)cc4)CC3)n2)cc1 [Example 87]
Ki [1]: 4620 nM | Ki ([2]; pyrimidines): 157 nM

Ki ([2]; indolones): 26 nM
SMILES: O=C1/C(=N\c2ccc(Cl)c(Cl)c2)c2ccccc2N1c1ccsc1 [Example 272, (3Z)-3-[(3,4-DICHLOROPHENYL)IMINO]-1-(3-THIENYL)-1,3-DIHYDRO-2H-INDOL-2-ONE]
Climbing [3, 7]: 3.9 ± 0.6 | Diving [3, 7]: 0.6 ± 0.4 | Immobility [3, 7]: 33 ± 1.8^a | Swimming [3, 7]: 22.9 ± 1.3^b | antidepressant profile in the FST (conclusion) [3]: has the profile of an antidepressant

SMILES: CNCCC(Oc1ccc(C(F)(F)F)cc1)c1ccccc1 (stereo not drawn) [Fluoxetine, fluoxetine, reference compound]
Climbing [3, 8]: 1.2 ± 0.4 | Diving [3, 8]: 0.0 ± 0.0 | Immobility [3, 8]: 45 ± 1.3^c | Swimming [3, 8]: 13.9 ± 1.0 | Climbing [3, 9]: 14.3 ± 0.9 counts | Diving [3, 9]: 0.1 ± 0.1 | Immobility [3, 9]: 21 ± 0.9^a counts | Swimming [3, 9]: 25 ± 1.2^b counts | Climbing [3, 10]: 3.3 ± 0.6 | Diving [3, 10]: 0.2 ± 0.1 | Immobility [3, 10]: 35 ± 1.7^a | Swimming [3, 10]: 21.4 ± 1.0^b

SMILES: CN(C)c1cc(Nc2ccccc2C(C)(C)C)nc(N2CCN(c3ccccn3)CC2)n1 [Example 212]
Ki ([2]; pyrimidines): 231 nM

SMILES: CN(C)c1cc(N[C@H]2CC3CC[C@]2(C)C3(C)C)nc(N2CCN(Cc3ccccc3)CC2)n1 [Example 167]
Ki ([2]; pyrimidines): 50 nM
